{"source": "patent US20250195427A1", "about": "“ANTI-INFLAMMATORY DRUG-ELUTING COMPOSITIONS AND METHODS” (THE REGENTS OF THE UNIVERSITY OF CALIFORNIA, priority 2022, published 2025)", "key": {"[1]": {"test": "Drug loading of mPEG-b-p(HPMAm-Lacn) micelles by HPLC (loaded concentration, encapsulation efficiency, loading capacity)", "type": "physicochemical", "conditions": "for final concentration of drug loaded inside MCs: polymer 10 mg/mL, 1 mL MC solution, HPLC; for difference in encapsulation efficiency (EE) % with various polymer/drug ratios: polymer/drug ratios 10:0.25 to 10:2", "protocol": "Drug loaded MCs were formed by self-assembly via a solvent evaporation method. Briefly, 10 mg of copolymers […] dissolved in 1 mL of acetone. Various amounts of drugs (0.25, 0.5, 1 and 2 mg) were then added to the copolymer solution and vortexed until fully mixed. […] The next day, the MC solution was centrifuged at 4,000 rpm at 22° C. for 10 min to remove unencapsulated drugs. LE, PA, and DEX were three drugs of interest. 30 mg/mL of drug stock solutions were prepared in DMSO. Unloaded MCs were prepared with the same procedure without the addition of drugs. The amount of loaded drugs (LE, PA and DEX) in the polymeric MCs was determined by using High Performance Liquid Chromatography (HPLC). Taking LE as an example, after centrifugation of the MC solution, the unencapsulated LE pellet was redissolved in 1 mL of ACN. […] LE dissolved in ACN (concentration from 0.1 mg/ml to 1 mg/ml) was used for calibration. The encapsulation efficiency (EE) and loading capacity (LC) were calculated as follows: […]"}, "[2]": {"conditions": "cited from earlier work"}}, "data": [{"compound": "CC(=O)OCC(=O)[C@@]1(O)CC[C@H]2[C@@H]3CCC4=CC(=O)C=C[C@]4(C)[C@H]3[C@@H](O)C[C@@]21C", "note": "[PA, Prednisolone acetate]", "values": [{"measurement": "final concentration of drug loaded inside MCs", "setting": "[1]; initially applied drug 0.25 mg", "value": "171.7 ± 4.2", "unit": "µg/mL"}, {"measurement": "final concentration of drug loaded inside MCs", "setting": "[1]; initially applied drug 2 mg", "value": "1154.0 ± 108.6", "unit": "µg/mL"}, {"measurement": "difference in encapsulation efficiency (EE) % with various polymer/drug ratios", "setting": "[1]", "value": "No significant difference"}]}, {"compound": "CCOC(=O)O[C@]1(C(=O)OCCl)CC[C@H]2[C@@H]3CCC4=CC(=O)C=C[C@]4(C)[C@H]3[C@@H](O)C[C@@]21C", "note": "[LE, Loteprednol etabonate]", "values": [{"measurement": "final concentration of drug loaded inside MCs", "setting": "[1]; initially applied drug 0.25 mg", "value": "55.7 ± 10.0", "unit": "µg/mL"}, {"measurement": "final concentration of drug loaded inside MCs", "setting": "[1]; initially applied drug 2 mg", "value": "589.2 ± 75.5", "unit": "µg/mL"}, {"measurement": "difference in encapsulation efficiency (EE) % with various polymer/drug ratios", "setting": "[1]", "value": "No significant difference"}, {"measurement": "Log P", "setting": "[2]", "value": 3.08}, {"measurement": "solubility in water", "setting": "[2]", "value": 0.5, "unit": "µg/mL"}]}]}
